Measured values taken from patent publication US10485814B2, “Nicotinamide riboside analogs and pharmaceutical compositions and uses thereof” (GlaxoSmithKline Intellectual Property (No. 2) Limited, priority 2014, dated 2019).
“Also recorded” adds a separate entry of the source.

Legend:
HaCaT cells = assay: H2O2-induced reactive oxygen species (ROS) in HaCaT cells (CellROX deep red); assay type: cell-based, human
Method: HaCaT cells were grown as described in example 23 and were seeded in 96-well plates (Nunc™ black with optical bottom, Thermo Fisher Scientific, Inc., Waltham, Mass.) with a density at 2×10^4 cells per well and 100 μl medium in each well, and grown overnight before treatments. Stock solutions of NRH and other test compounds were prepared and diluted to 2× of final treatment concentrations in DMEM medium in 96-well storage plate as indicated in the FIG. 11. HaCaT Cells were treated in triplicates by adding 100 μl of diluted solutions of test compounds (2×) to each well containing 100 μl medium already. Cells were incubated in the presence of test compounds for 3 hrs. At the end of 3 hr incubation, cells were washed once with 200 μl DPBS with Ca^++ and Mg^++ (Life Technologies) and then fed with 100 μl DMEM medium each well containing H2O2 at 250 μM (as a ROS (reactive oxygen species) inducer, Sigma). After 30 min incubation, cells were washed once with 200 μl DPBS with Ca^++ and Mg^++ and CellROX deep red reagent (2.5 mM stock solution, Life Technologies) was added to the medium to a final concentration of 5 μM. After 1 hr incubation at 37° C., 5% CO2, Cells were washed for 3 times with DPBS, fluorescence signal was read at Ex. 640 nm and Em. 665 nm in Biotek Synergy H4 microplate reader (BioTek, Winooski, Vt.). Untreated cells were served as controls (normalized to 1). All the treated samples were normalized to the untreated control.

C57BL/6 DIO mice = assay: NRH triacetate efficacy in DIO (Diet-Induced Obesity) mice; assay type: in vivo
Method: C57BL/6 DIO mice and lean controls were purchased from Taconic (Hudson, N.Y.). All mice were fed Purina 5001 chow ad libitum from weaning until 6 weeks of age, then DIO mice were fed a diet containing 60% fat, ad libitum. When the mice were 18 weeks old, dosing was begun. Mice were segregated into groups of 8, with group A receiving vehicle (1:1 (v:v) PEG400: water), group B receiving 100 mg/kg nicotinamide riboside hydride triacetate as a solution in vehicle, group C receiving 500 mg/kg nicotinamide riboside hydride triacetate as a solution in vehicle, and group D (chow-fed lean control mice) receiving vehicle. The mice were dosed once per day via oral gavage for six weeks. After three weeks of dosing, body weights, post-prandial blood glucose, and post-prandial blood insulin levels were measured using commercially available kits. After four weeks of dosing, fasted blood glucose and fasted blood insulin levels were measured. Nicotinamide riboside and NAD levels were measured after four weeks of dosing, using the same extraction and LCMS protocol as described in Example 21 with NAD giving an LC retention time=2.5 min, MS Q1 peak, m/z=664(M+H)+, Q3 peak, m/z=428 (M-Cl1H13N2O4). Statistical analysis was performed using one-way ANOVA, and Dunnett's post test.
Chow-fed mice were used as non-diabetic controls.

[1] = Plasma hydrolysis of nicotinamide riboside analogs to NR (incubation with rat plasma, LC/MS/MS); assay type: in vitro ADME; settings: 10 mM, incubated 30 min at 37° C.
Method: Compounds were diluted with rat plasma to a concentration of 10 millimolar (mM). Samples were incubated for 30 min at 37° C., taking 50 microL aliquots for analysis at 0 and 30 min. The aliquots were loaded onto a deep 96 well plate, then 350 microL of 0.1% (v:v) formic acid in acetonitrile was added to each well. The plate was covered and sealed to prevent evaporation, then it was placed on an orbital plate shaker set to 800-900 rps for 5-10 minutes. Next, the plate was centrifuged at around 3000 rpm for 5 min to provide a clear supernatant. For LC/MS/MS analysis, 200 microL of supernatant from each well was transferred onto a clean plate, which was subsequently capped and placed into an autosampler.
(§1) LCMS Conditions. For each well, a 10 microL sample was injected via autosampler onto a Chromolithe Performance, RP-18e (100×4.6 mm) column, and eluted with a binary gradient. Solvent A=0.1% formic acid, 0.1% N,N-dibutyl-N-methylamine (DBME) in 2 mM aqueous ammonium acetate (1:1:1000 v:v:v). Solvent B=0.1% formic acid in acetonitrile (1:1000 v:v). The solvent gradient was as follows: 0-0.22 min, 95:5 A:B; […], 95:5 A:B to 30:70 A:B (linear gradient); 5.05-6.05 min, 30:70 A:B; 6.05-6.60 min, 30:70 A:B to 95:5 A:B (linear gradient); 6.60-7.15 min, 95:5 A:B; stop elution at 7.15 min. Nicotinamide riboside eluted at approximately 1.7 min. A triple-quadrupole mass spectrometer was employed for peak identification. The identity of the analyte was confirmed by MS observation of a Q1 peak at m/z=255 (M)^+, and a Q3 peak at m/z=123.1 (M-C5H8O4)^+.
The results are shown in FIG. 3, with the release of free nicotinamide riboside measured using by HPLC-MS at 0, 30, and 60 minute time points (columns 5, 6, and 7 of table shown in FIG. 3). For each of NR esters in Table 3, except nicotinamide riboside tribenzoate, nicotinamide riboside was detected at the 30 minute time point.

[2] = Gravimetric Vapor Sorption (GVS); assay type: physicochemical; settings: 90% RH, 25° C.
Method: Gravimetric Vapor Sorption (GVS): Samples were analyzed using a VTI corporation (now part of TA Instruments) SGA-100 with Cahn microbalance equipped with quartz sample and reference pans. Samples were dried in the SGA-100 under dry nitrogen for 5 hours at 25° C. followed by a moisture absorption step ramp from 5% relative humidity (RH) to 95% or 90% RH followed by a desorption step ramp back to 5% or 10% RH (all steps at 25° C.). The samples were held at each % RH step for 4 hours.

[3] = Plasma/blood nicotinamide riboside levels in orally dosed mice (LCMS); assay type: in vivo; settings: oral gavage 500 mg/kg in PBS; for plasma nicotinamide riboside levels: both 2 h and 6 h post-dose
Method: Compounds were suspended in phospho-buffered saline (PBS) solution at 125 mg/mL. Eight mice were dosed via oral gavage with study compound at 500 mg/kg, (20 mg compound in 160 microL of PBS for a 40 g mouse). Four mice were euthanized via CO2 asphyxiation at 2 h post-dose, then the remaining four were euthanized at 6 h post-dose, and blood was collected immediately following euthanasia via cardiac puncture, orbital bleed, or tail vein nick. Approximately 600 microL of blood was collected from each mouse. The blood samples were diluted with 5 volumes of 70% (1% sulfosalicylic acid/1 microM DTE/10 microM CD-38 inhibitor)/30% (37% 10 mM aqueous ammonium bicarbonate/63% acetonitrile). The mixture was vortexed, then centrifuged at 3000 rpm for 10 min at 4° C. to give a transparent supernatant. A 10 microL portion of the supernatant was analyzed by LCMS, using the conditions below.
as §1, with “injected” for “injected via autosampler”, “A:B;” for “A:B; stop”, “elution was stopped” for “elution”, “(M)+,” for “(M)^+,”
In the bar graph in FIG. 5, compounds are shown on the x-axis, and comparative LCMS signal is shown on the y-axis; with each compound dosed in mice at 500 mg study compound per 1000 g mouse as a solution or suspension in phospho-buffered saline solution (PBS) (A=blank control (PBS), B=nicotinic acid riboside hydride ethyl ester triacetate, C=Nicotinamide riboside hydride triisobutyrate, D=Nicotinamide riboside hydride tri-n-butyrate, E=Nicotinamide riboside hydride tripropionate, F=nicotinamide riboside hydride tribenzoate). As shown, samples were taken 2 hours and 6 hours post dose. Also as shown, samples were kept cold (4° C.) or at room temperature (approximately 23° C.) before analysis.

[4] = 100 and 500 mg/kg once per day orally, after four weeks of dosing
[5] = oral gavage once per day 100 or 500 mg/kg, post-prandial, after three weeks of dosing

Structure (SMILES) | conversion to free nicotinamide riboside [1] | plasma nicotinamide riboside levels [3] | also measured
OO [Example H2O2] | – | – | level of ROS (HaCaT cells; 250 μM H2O2, 30 min, normalized to untreated control): ~6 fold
OCCc1ccc(O)c(O)c1 [Hydroxyterosol] | – | – | H2O2-induced ROS (HaCaT cells; 3 hr pre-incubation then 250 μM H2O2, Hydroxyterosol 0.005%, niacinamide 4.5 mM, NRH several concentrations): reduced H2O2-induced ROS
CC(=O)OC[C@H]1O[C@@H](N2C=CCC(C(N)=O)=C2)[C@H](OC(C)=O)[C@@H]1OC(C)=O [NRH triacetate, (2R,3R,4R,5R)-2-(acetoxymethyl)-5-(3-carbamoylpyridin-1(4H)-yl)tetrahydrofuran-3,4-diyl diacetate] | converted to free nicotinamide riboside to a significant degree | – | blood NAD levels (C57BL/6 DIO mice; [4]): rose in a dose-dependent manner; also recorded: rise in a NRH-triacetate dose-dependent manner; blood nicotinamide riboside levels (C57BL/6 DIO mice; [4]): rose in a dose-dependent manner; also recorded: rise in a NRH-triacetate dose-dependent manner; blood glucose levels (C57BL/6 DIO mice; [5]): reduced; blood insulin levels (C57BL/6 DIO mice; [5]): reduced; GVS weight gain from the dried state [2]: greater than 12%
NC(=O)C1=CN([C@@H]2O[C@H](COC(=O)c3ccccc3)[C@@H](OC(=O)c3ccccc3)[C@H]2OC(=O)c2ccccc2)C=CC1 [NRH tribenzoate, (2R,3R,4R,5R)-2-((benzoyloxy)methyl)-5-(3-carbamoylpyridin-1(4H)-yl)tetrahydrofuran-3,4-diyl dibenzoate] | not significantly converted to free nicotinamide riboside | – | nicotinamide riboside level ([3]; 2 h post-dose): only a very modest increase
CCCC(=O)OC[C@H]1O[C@@H](N2C=CCC(C(N)=O)=C2)[C@H](OC(=O)CCC)[C@@H]1OC(=O)CCC [NRH tributyrate, (2R,3R,4R,5R)-2-((butyryloxy)methyl)-5-(3-carbamoylpyridin-1(4H)-yl)tetrahydrofuran-3,4-diyl dibutyrate] | converted to free nicotinamide riboside to a significant degree | raised plasma nicotinamide riboside levels substantially | –
CC(C)C(=O)OC[C@H]1O[C@@H](N2C=CCC(C(N)=O)=C2)[C@H](OC(=O)C(C)C)[C@@H]1OC(=O)C(C)C [NRH triisobutyrate, (2R,3R,4R,5R)-2-(3-carbamoylpyridin-1(4H)-yl)-5-((isobutyryloxy)methyl)-tetrahydrofuran-3,4-diyl bis(2-methylpropanoate)] | converted to free nicotinamide riboside to a significant degree | raised plasma nicotinamide riboside levels substantially | –
CCC(=O)OC[C@H]1O[C@@H](N2C=CCC(C(N)=O)=C2)[C@H](OC(=O)CC)[C@@H]1OC(=O)CC [NRH tripropionate, (2R,3R,4R,5R)-2-(3-carbamoylpyridin-1(4H)-yl)-5 ((propionyloxy)methyl) tetrahydrofuran-3,4-diyl dipropionate] | converted to free nicotinamide riboside to a significant degree | raised plasma nicotinamide riboside levels substantially | –
